A word on the IC50: it is the concentration at which inhibition is half-maximal.

The experiment has as its target Homeodomain-interacting protein kinase 3 (Homo sapiens) (UniProt Q9H422). The experiment is described as follows: inhibition of human HIPK3 (YAK1) activity – biochemical, Z'-LYTE, FRET, protease-coupled, direct format, dose response (AID 1671294). The conditions noted are these: recombinant HIPK3.

Structures are written as SMILES.

Homeodomain-interacting protein kinase 3 (Homo sapiens), sequence (Q9H422 whole entry, looked up): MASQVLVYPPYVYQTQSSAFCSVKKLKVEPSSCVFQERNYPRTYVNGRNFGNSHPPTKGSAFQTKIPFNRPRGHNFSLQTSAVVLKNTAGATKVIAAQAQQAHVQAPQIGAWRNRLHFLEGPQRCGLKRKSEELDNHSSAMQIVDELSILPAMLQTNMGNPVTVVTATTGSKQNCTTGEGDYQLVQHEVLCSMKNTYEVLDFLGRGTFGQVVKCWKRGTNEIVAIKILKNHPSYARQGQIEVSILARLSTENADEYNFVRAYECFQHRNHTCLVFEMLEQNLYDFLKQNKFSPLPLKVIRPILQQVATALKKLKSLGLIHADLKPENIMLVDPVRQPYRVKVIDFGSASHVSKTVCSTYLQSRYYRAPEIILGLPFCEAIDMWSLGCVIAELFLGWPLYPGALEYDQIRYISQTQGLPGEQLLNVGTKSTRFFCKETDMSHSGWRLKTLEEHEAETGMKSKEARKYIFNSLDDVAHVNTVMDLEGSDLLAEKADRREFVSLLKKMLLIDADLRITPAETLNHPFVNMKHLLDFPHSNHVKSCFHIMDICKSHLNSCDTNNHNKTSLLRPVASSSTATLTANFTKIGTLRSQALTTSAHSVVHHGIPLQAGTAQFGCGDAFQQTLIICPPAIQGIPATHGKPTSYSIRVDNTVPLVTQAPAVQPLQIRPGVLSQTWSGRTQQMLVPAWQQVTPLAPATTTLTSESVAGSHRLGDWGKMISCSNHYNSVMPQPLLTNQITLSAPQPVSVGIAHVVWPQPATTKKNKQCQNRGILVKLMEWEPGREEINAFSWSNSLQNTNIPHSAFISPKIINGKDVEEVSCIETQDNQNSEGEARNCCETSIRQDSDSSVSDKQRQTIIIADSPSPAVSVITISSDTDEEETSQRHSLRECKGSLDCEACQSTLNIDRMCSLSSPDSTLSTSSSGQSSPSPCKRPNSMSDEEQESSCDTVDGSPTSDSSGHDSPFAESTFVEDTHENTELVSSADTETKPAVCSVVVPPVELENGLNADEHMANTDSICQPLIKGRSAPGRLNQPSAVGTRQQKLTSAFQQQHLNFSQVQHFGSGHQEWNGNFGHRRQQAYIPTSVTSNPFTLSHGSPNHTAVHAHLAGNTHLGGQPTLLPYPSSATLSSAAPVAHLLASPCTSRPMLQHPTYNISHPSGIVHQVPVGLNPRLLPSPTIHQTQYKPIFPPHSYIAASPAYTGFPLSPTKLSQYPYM

Take `Brc1c(Br)c(Br)c2n[nH]nc2c1Br`: the half-inhibitory concentration (IC50) is 5.1 µM.

(Values after PubChem BioAssay AID1671294.)
